Test [1] deals with chick chorioallantoic membrane (CAM). The experiment in a line: Neovascularization in the chick chorioallantoic membrane (CAM) model. In kind it is in vivo. The following applies: for PAR2-induced angiogenesis in the CAM model: in words, FIG. 3, Table 5; for Branch Points ± SEM: Table 3, agent alone: FGF2 1 ug/ml, VEGF 2 ug/ml, PAR-1 3 ug, PAR-2 0.3 ug, n = 8; for Mean Number of Branch Points ± SD: Table 4, agent alone: FGF2 1.0 μg, PAR2 agonist 5.0 μg, TF/factor VIIa, N = 16. On the procedure: In vivo neovascularization was examined by the method previously described by Auerbach et al. (Auerbach et al., J. Dev. Biol., 41:391-394 (1974), which is hereby incorporated by reference in its entirety). Ten-day old embryos were purchased from Spafas, Inc. (Preston, Conn.) and were incubated at 37° C. with 55% relative humidity. In the dark with the help of a candling lamp, a small hole was punctured in the shell concealing the air sac with a hypodermic needle. A second hole was punctured in the shell on the broadside of the egg directly over an avascular portion of the embryonic membrane, as observed during candling. A false air sac was created beneath the second hole by the application of negative pressure to the first hole, which caused the chorioallantoic membrane (CAM) to separate from the shell. A window, approximately 1.0 cm^2, was cut in the shell over the dropped CAM with the use of a small crafts grinding wheel (Dremel, Division of Emerson Electric Company Racine, Wisconsin) which allowed direct access to the underlying CAM. Filter disks of #1 filter paper (Whatman International, United Kingdom) were soaked in 3 mg/ml cortisone acetate (Sigma, St. Louis, Mo.) in a solution of 95% ethanol and water and subsequently air dried under sterile conditions. FGF2 (Life Technologies, Gaithersburg, Md.) was used to grow vessels on the CAMs of 10 day old chick embryos. Sterile filter disks adsorbed with FGF2 dissolved in PBS at 1 μg/ml were placed on growing CAMs. […] At 24 h, test compounds or control vehicle was added directly to CAM topically.
CAM tissue directly beneath FGF2-saturated filter disk was resected from embryos treated 48 hours prior with test compound or control. Tissues were washed three times with PBS. Sections were placed in a 35-mm petri dish (Nalge Nunc, Rochester, N.Y.) and examined under a SV6 stereomicroscope (Karl Zeiss, Thornwood, N.Y.) at 50× magnification. Digital images of CAM sections adjacent to filters were collected using a 3-CCD color video camera system (Toshiba America, New York, N.Y.) and analyzed using Image-Pro Plus software (Media Cybernetics, Silver Spring, Md.).
CAM tissue directly beneath FGF2-saturated filter disk was resected from embryos treated 48 h prior with compound or control. Tissues were washed three times with PBS. Sections were placed in a 35-mm petri dish (Nalge Nunc, Rochester, N.Y.) and examined under a SV6 stereomicroscope (Karl Zeiss, Thornwood, N.Y.) at 50× magnification. Digital images of CAM sections adjacent to filters were collected using a 3-CCD color video camera system (Toshiba America, New York, N.Y.) and analyzed with the Image-Pro Plus software (Media Cybernetics, Silver Spring, Md.).

For test [2] the test system is unchanged. Described as above. The format is in vivo. The settings on record: Table 5; for Mean % Inhibition ± SEM: inhibition of PAR-2 (SEQ ID NO: 3, 0.3 ug/ml) stimulated angiogenesis, inhibitor doses as E12.
Test [3] has as its target T1, PAR-1 (Homo sapiens, UniProt P25116).
T1 sequence (P25116 22-425): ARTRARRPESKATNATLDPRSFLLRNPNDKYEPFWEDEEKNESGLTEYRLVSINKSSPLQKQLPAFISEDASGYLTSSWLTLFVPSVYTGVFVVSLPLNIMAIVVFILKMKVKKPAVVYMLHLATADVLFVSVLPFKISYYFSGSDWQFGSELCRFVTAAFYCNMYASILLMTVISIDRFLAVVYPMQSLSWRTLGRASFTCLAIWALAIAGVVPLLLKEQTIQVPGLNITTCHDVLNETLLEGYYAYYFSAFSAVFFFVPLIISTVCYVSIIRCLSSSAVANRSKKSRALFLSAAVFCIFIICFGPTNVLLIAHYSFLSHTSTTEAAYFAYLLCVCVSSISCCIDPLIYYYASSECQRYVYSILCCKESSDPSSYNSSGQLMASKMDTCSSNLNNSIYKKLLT
The following applies: PAR-1 antagonist, variety of bioassays; cited from earlier work.

Test [4] has as its target T2, PAR-2 (Homo sapiens, UniProt P55085).
T2 sequence (P55085 26-397): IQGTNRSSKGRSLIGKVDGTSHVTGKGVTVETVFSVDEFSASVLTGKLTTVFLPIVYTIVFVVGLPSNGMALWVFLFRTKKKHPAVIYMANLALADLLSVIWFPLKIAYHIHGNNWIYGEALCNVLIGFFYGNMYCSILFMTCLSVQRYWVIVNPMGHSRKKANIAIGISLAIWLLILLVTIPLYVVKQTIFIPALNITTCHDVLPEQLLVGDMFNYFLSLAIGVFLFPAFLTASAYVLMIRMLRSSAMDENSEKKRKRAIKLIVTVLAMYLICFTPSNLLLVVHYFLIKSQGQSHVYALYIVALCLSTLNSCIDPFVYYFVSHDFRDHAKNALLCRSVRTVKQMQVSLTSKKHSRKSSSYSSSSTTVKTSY
The settings on record: in words; cited from earlier work.

Test [5] concerns Human umbilical vein endothelial cells (HUVEC). Put plainly: Endothelial cell tube formation on Matrigel. In kind it is cell-based. The settings on record: agent alone; FGF2 0.1 μg, PAR2 agonist 0.25 μg; n = 3. The protocol:
Differentiation by endothelial cells was examined using a method developed by Grant et al. (Grant et al., In Vitro Cell Dev. Biol., 27A:327-336 (1991), which is hereby incorporated by reference in its entirety). Matrigel® matrix, phenol-red free (commercially available from Becton Dickinson, Bedford, Mass.) was thawed overnight at 4° C. Using cold pipette tips, 3.0 mg/well of Matrigel® matrix was placed in a cold twenty-four-multiwell plate (Falcon). Matrigel® matrix was allowed to polymerize during incubation at 37° C. for 30 minutes.
Human umbilical vein endothelial cells (HUVEC) were maintained at 37° C. with 5% CO2 and 95% humidity in endothelial cell growth medium with 2% fetal bovine serum (EGM). The tube assay was performed in endothelial cell basal medium (EBM) supplemented with 0.5% bovine serum albumin (BSA) and 1:100 diluted Insulin-Transferrin-Selenium-G supplement (I-T-Se, 100×). HUVEC were trypsinized, centrifuged, and, subsequently, washed twice in phosphate buffered saline (PBS). […] Digital images of micro-titer well sections were collected using a DKC5000 3-CCD color video camera system (Toshiba America, New York, N.Y.) and analyzed using Image-Pro Plus software (Media Cybernetics, Silver Spring, Md.). The area and major axis length of stained cells having a tubular morphology was measured on the Matrigel® matrix surface (Becton Dickinson, Bedford, Pa.).

For a further test, the system named is rat aorta. The following applies: in words; cited from earlier work.
Test [6] has as its target T1, PAR-1. The following applies: at PAR-1; in words; cited from earlier work.
In test [7] the test system is Human dermal micro-vascular endothelial cells (HDMEC). Put plainly: In vitro 3D sprout angiogenesis (vessel tube length) assay. The format is cell-based. The settings on record: agent alone, 1 ug. On the procedure: Culture of HDMEC on micro-carrier beads: 80% confluent HDMEC (Passage 5-10) were mixed with gelatin-coated Cytodex-3 beads with a ratio of 40 cells per bead. Suspend cells and beads (150-200 beads per well for 24-well plate) with 5 ml EBM+15% normal human serum, mix gently every one hour for first four hours, then leave the mixture culture in CO2 incubator overnight. The next morning, add 10 ml of fresh EBM+15% HS and culture for another three hours. Before experiments, check the culture of EC-beads. Add 500 μl of PBS in a well of 24-well plate, take 100 ul of the EC-bead culture solution, and add it to the PBS, observe and count the number of beads, calculate the concentration of EC-beads. The EC-beads are good for experiments for 48 hours.
Prepare fibrinogen solution (1 mg/ml) in EBM medium with or without angiogenesis factors or testing factors. For positive control, use 30 ng/ml VEGF+25 ng/ml FGF2. Wash EC-beads with EBM medium for two times and add EC-beads to fibrinogen solution. For each condition, do experiment in triplicates. Mix the EC-beads in fibrinogen solution gently and add 2.5 μl human thrombin (0.05 U/μl) in 1 ml fibrinogen solution, immediately transfer 300 ul to each well of 24-well plate. The fibrinogen solution will polymerize in 5-10 minutes, after 20 minutes, add EBM+20% normal human serum+10 μg/ml Aprotinin. Incubate the plate in CO2 incubator. […]

The target in test [8] is T2, PAR-2. The settings on record: at PAR-2; in words; cited from earlier work.
Test [9] concerns isolated blood vessel preparations. The settings on record: in words, cited from earlier work.
Where [10] appears, read: PAR-2 (SEQ ID NO: 3, 0.3 ug/ml) + inhibitor: XT199 10 ug, anti-VII/VIIa 3 ug, PD98059 5 ug, Hirudin 1 U, PAR-2 mAb 3 ug, anti-TF mAb 2 ug.

These results are taken from patent US20060104944A1, “Activators and inhibitors of protease activated receptor2 (PAR2) and methods of use” (priority 2004, published 2006).

No end group written: not given here. *: point of attachment. tc = trans-cinnamoyl N-cap, O=C(/C=C/c1ccccc1)*; code O = not defined here

With `COc1cccc(-c2cc(=O)c3ccccc3o2)c1N` [PD98059], the “PAR2-induced angiogenesis in the CAM model” value in test [1] was “blocked”. The “Mean Branch points ± SEM” value in [2] (setting [10]) is 102 ± 9. In addition, the “Mean % Inhibition ± SEM” value in [2] is 88 ± 12%.
Consider `NCC[C@H](NC(=O)[C@H](Cc1ccc(F)c(F)c1)NC(=O)Nc1ccc2c(CN3CCCC3)cn(Cc3c(Cl)cccc3Cl)c2c1)C(=O)NCc1ccccc1` [RWJ-56110], for which, on PAR-1 [3], the IC50 (in general, the point on the concentration scale where inhibition reaches its midpoint) was 100 to 500 nM. For the same compound, the “activity as a PAR-2 antagonist” value at PAR-2 [4] is “inactive”.
With “FGF2: human fibroblast growth factor basic”, in test [5], the “Mean Endothelial tube length (mm) ± SD” value is 64 ± 5 mm. Besides, in test [1] (1 μg of FGF2), the “increase in angiogenesis index” value was 2-3 fold. Besides, in test [1], the “Branch Points ± SEM” value amounted to 182 ± 11 and the “Mean Number of Branch Points ± SD” value is reported as 198 ± 14.
As to FSLLRY [FSLLRY-NH2, PAR2 antagonist], in the test with rat aorta, the trypsin relaxant activity result was “antagonize”. For the same compound, on PAR-1 [6], the agonistic activity entry is given as “lack agonistic activity”.
Take “HOOC-L-I-G-R-L-O-NH2 (LIGRL-{code O-NH2}; reading uncertain; also: 'HOOC-' written at N-terminus) [SEQ ID NO: 3]”: the “Mean Branch points ± SEM” value in [2] (PAR-2 agonist alone, 0.3 ug/ml, n = 8) came out at 176 ± 14; in test [2] (PAR-2 agonist alone, 0.3 ug/ml, n = 8, listed as PAR-2), 186 ± 17.
With “HOOC-S-L-I-G-K-V-NH2 (SLIGKV-NH2; also: 'HOOC-' written at N-terminus) [SEQ ID NO: 5]”, the “Vessel Length(mm) ± SEM” value in test [7] is 1.39 ± 0.28 mm. In [1], the “Branch Points ± SEM” value is reported as 197 ± 15 and the “Mean Number of Branch Points ± SD” value is given as 205 ± 8.
Take “HOOC-S-L-I-G-R-L-NH2 (SLIGRL-NH2; also: 'HOOC-' written at N-terminus) [SEQ ID NO: 4]”: the “Mean Endothelial tube length (mm) ± SD” value in test [5] is 58 ± 4 mm.
Regarding Hirudin, the “PAR2-induced angiogenesis in the CAM model” value in [1] is recorded as “not”. In addition, in [2] (setting [10]), the “Mean Branch points ± SEM” value is on record as 174 ± 9. For the same compound, the “Mean % Inhibition ± SEM” value in test [2] worked out at 3 ± 8%.
On to LSIGRL [LSIGRL-NH2, PAR2 antagonist], for which the agonistic activity entry at PAR-2 [8] is on record as “lack agonistic activity”.
Consider “TFLLRN [SEQ ID NO: 6, PAR1 agonist peptide used for comparison]”, for which the “Vessel Length(mm) ± SEM” value in [7] was 0.88 ± 0.08 mm. Also, the “Branch Points ± SEM” value in test [1] stood at 101 ± 7.
Regarding VEGF, the “Branch Points ± SEM” value in [1] was 168 ± 10.
As to “tc-LIGRLO (tc-LIGRL-{code O}; reading uncertain; also: printed as tc-LIGRLO)”, in test [9] (compared with SLIGRL), the “activity in the relaxation assay” value was “equally active”. Besides, the contraction entry in test [9] was “does not cause contraction”.
